Source: US9394520B2, “Expansion of hematopoietic stem cells” (University of Rochester, priority 2006, dated 2016)
Entries after “also recorded” stand apart in the source; their conditions may differ.

Columns and labels:
HES1 = assay: Notch target gene HES1 expression by real time RT-PCR; format: cell-based; settings: UMR 206 cells, PGE2 treatment, starting at 24 hours
Experimental: FIG. 3 is a graph showing that PGE2 treatment in UMR 206 cells increased expression of the Notch target gene HES1 as determined by real time RT-PCR analysis starting at 24 hours.
At the designated times, total RNA and protein were harvested. Total RNA was extracted and analyzed by real time RT-PCR, normalizing for β-actin expression and t=0. Total protein was analyzed by Western blots performed using the XCELL SURELOCK™ system (Invitrogen, Carlsbad, Calif.). Blots were probed with Jag1 c-20 antibody (Santa Cruz Biotechnology, Inc., Santa Cruz, Calif.), and the loading control was B-actin.

hematopoietic stem cells = assay: HSC frequency by flow cytometric analysis of lin-, sca+, kit+ (LSK/KSL) bone marrow cells; format: in vivo, mice
Experimental: FIG. 7A is a graph showing KSL frequency at 4 days. FIG. 7B is a graph showing KSL frequency at 8 days. FIG. 7C is a graph showing KSL frequency at 12 days. FIG. 7D is a graph showing KSL frequency at 16 days.
FIG. 9 is a graph showing the percent of HSCs in total bone marrow following in vivo administration of PGE2 in C57bl/6 mice. Eight to ten week old WT C5bl/6 mice given IP injections twice daily for 16 days of either 6 mg/kg PGE2 or vehicle (n=4 for each group). The left hind limb of each mouse was harvested, the bone marrow flushed out and the cells stained with lineage markers, sca-1 and c-kit. DAPI was used for a viability stain. The lin−, sca+, kit+ population was gated using FlowJo software for both PGE2 treated and vehicle treated samples. There was a 66% increase in lin−, sca+, kit+ (LSK) cells in PGE2 vs. vehicle treated mice (p=0.0093). As used herein, LSK and KSL frequency are used interchangeably.
Eight to ten week old FVB/N male mice were injected intraperitoneally once or twice daily for 16 days with either PGE2 (6 mg/kg body weight) or vehicle. Left hind limbs were harvested, fixed, decalcified, and processed. Right hindlimbs were harvested at the same time. The bone marrow was flushed and stained for FACS analysis with scal, ckit, and lineage marker antibodies.
In order to determine if the number of HSCs was increased in vivo by PGE2, eight to ten week old FVB/N mice were given daily IP injections for 16 days of either 6 mg/kg PGE2 or Vehicle. The left hind limb of each mouse was harvested, the bone marrow was flushed out, and the cells were stained with lineage markers, sca-1 and c-kit. DAPI was used for a viability stain. The lin−sca+ckit+population was gated using FlowJo software (FlowJo, Ashland, Oreg.) for both PGE2 treated and VEH treated samples. […] The same procedure was performed on C57bl/g mice.

[1] = system: intermediate progenitors of hematopoietic stem cells; assay: Colony forming unit-cell (CFU-C) assay of bone marrow mononuclear cells from treated mice; format: in vivo
From the text: FIG. 8 is a graph showing that intermediate progenitors of hematopoietic stem cells are not increased by PGE2 treatment. Therefore, PGE2 specifically increases HSCs. The bone marrow mononuclear cells from mice treated with vehicle and PGE2 using colony forming unit-cell (CF-C) activity in vitro. […] Peripheral white blood cell and hematocrit levels were not changed in PGE2 vs. vehicle treated mice at 16 days (WBC counts: vehicle averaged 5.75±0.20×10^3/μl; PGE2 averaged 4.72±0.61×10^3/μl) (Hematocrit: vehicle averaged 42±1%; PGE2 averaged 43±2%) (n=6 for each treatment group).
FIG. 8 is a graph showing that intermediate progenitors of hematopoietic stem cells are not increased by PGE2 treatment. Therefore, PGE2 specifically increases HSCs. The bone marrow mononuclear cells from mice were treated with vehicle and PGE2 to determine if there was an increase in intermediate progenitors in response to PGE2 using the colony forming unit-cell (CFU-C) assay. […] In addition, peripheral white blood cell and hematocrit levels were not changed in PGE2 vs. vehicle treated mice at 16 days (WBC counts: vehicle averaged 5.75±0.20×10^3/μl; PGE2 averaged 4.72±0.61×10^3/μl) (Hematocrit: vehicle averaged 42±1%; PGE2 averaged 43±2%) (n=6 for each treatment group).
The opposite limb of the same mice was used for flow cytometric analysis, in vitro progenitor CFU-C assays and competitive repopulation. […]

ST-HSC = assay: Competitive repopulation in lethally irradiated recipients; format: in vivo, mice; settings: donor CD45.2 to competitor CD45.1 1:2, effect limited to short-term (up to 6 weeks)
Experimental: FIGS. 11A, 11B and 11C are graphs showing engraftment data from peripheral blood from competitive repopulation analysis from CD45.2+c57bl/6 mice treated daily with PGE2 (6 mg/kg i.p. twice daily) (n=8 mice per treatment group, n=10 recipient mice per group, 2 experiments).
This effect was limited to the short-term (up to 6 weeks) (FIGS. 11A, 11B and 11C), illustrating specific ST-HSC expansion. This is a unique in vivo model of selective ST-HSC increase. This effect is best illustrated by the short lived CD11b+myeloid subset (FIGS. 11A, 11B and 11C).

HSC subsets = assay: LSK subset analysis based on Flt3 and Thy1.1 expression; format: in vivo, mice
Experimental: FIGS. 12A and 12B are representative plots of flow cytometric strategy of LSK subset from bone marrow of individual vehicle and PGE2-treated mice, numbers in the quadrant represent percentage of LSK.
To further confirm this targeted PGE2 effect, LSK subset analysis based on Flt3 and Thy1.1 expression was performed. […] (n=4 per treatment group).

## CCCCC[C@H](O)/C=C/[C@H]1[C@H](O)CC(=O)[C@@H]1C/C=C\CCCC(=O)O [PGE2, Prostaglandin E2]
HES1
  expression of the Notch target gene HES1: increased
Hematopoietic stem cells; C57bl/6 mice, 6 mg/kg IP twice daily for 16 days, n=4
  increase in lin−, sca+, kit+ (LSK) cells vs. vehicle: 66%
Hematopoietic stem cells; FVB/N mice, 6 mg/kg IP daily, 4 to 16 days, vs vehicle, 6 mg/kg
  percent of HSCs (KSL) in total bone marrow: trend towards an increase; also recorded: increased significantly
Hematopoietic stem cells; adult C57Bl/6 male mice, 16 days, n=8 per group
  increase of HSC enriched LSK subpopulation: 3.5 fold
[1]; BMMC from C57Bl/6 mice treated 16 days, Example 2
  CFU-C frequency: No evidence of PGE2 effects
[1]; BMMC from treated mice, Example 1
  CFU-C frequency: did not increase
ST-HSC
  multilineage reconstitution by donor cells from treated mice: superior multilineage reconstitution
HSC subsets; n=4, p 0.007 vs vehicle
  MPP (Flt3+Thy1.1- LSK) quantification from bone marrow: 0.0305 ± 0.002398
HSC subsets; n=4, p 0.0307 vs vehicle
  ST-HSC (Flt3+Thy1.1int LSK) quantification from bone marrow: 0.02725 ± 0.003568
HSC subsets; n=4, p 0.1069 (NS) vs vehicle
  LT-HSC (Flt3−Thy1.1int LSK) quantification from bone marrow: 0.01264 ± 0.002233
